Source: US7517657B2, “Peptides for detecting anti-double stranded DNA antibody and uses thereof” (Albert Einstein College of Medicine of Yeshiva University, priority 1995, dated 2009)
Ends that are not written are not given here.

Key:
[1] = test system: R4A anti-dsDNA monoclonal antibody; assay: ELISA binding of monoclonal antibody R4A to phage clones; set-up: species or system mouse; conditions: R4A selected phage, Table 2
Procedure: (§1) FIG. 1 is comprised of FIGS. 1A, 1B and 1C, and depicts the binding by Enzyme Linked ImmunoSorbent Assay of monoclonal antibodies R4A (FIG. 1A), 95 (FIG. 1B) and 52b3 (FIG. 1C) to phage clones. In each figure, the shaded columns are R4A-selected phage and unshaded columns are 52b3-selected phage.
(§2) Binding of antibodies to phage was determined by Enzyme-Linked ImmunoSorbent Assay (ELISA). Microtiter plates (Becton Dickinson, Lincoln Park, N.J.) were coated with 50 μl of antibody (1 μg/ml unless otherwise specified) in TBS (Tris/10 mM HCl pH 7.5, 150 mM NaCl) overnight at 4° C. Plates were washed 3 times with TBS/0.05% TWEEN® 20. Approximately 2.5×10^10 purified phage in 50 μl TBS were added to each well, incubated for 2 hours at 37° C., washed, and then were blocked with 150 μl of TBS/2% BSA for 1 hour at 37° C. Plates were incubated with 50 μl of a 1:4000 dilution in TBS of biotinylated sheep antibody to M13 phage (5′->3′, Inc., Boulder, Colo.) for 1 hour at 37° C. Plates were washed again and incubated with a 1:4000 dilution of […] streptavidin (Southern Biotech. Assoc. Inc., Birmingham, Ala.) and developed with Sigma-104 substrate tablets (Sigma Chemical Co.). Optical density was read at 405 nm.

[2] = test system: 52b3 anti-dsDNA monoclonal antibody; assay: ELISA binding of monoclonal antibody 52b3 to phage clones; set-up: species or system mouse; conditions: 52b3 selected phage, Table 3
Procedure: as §1, §2

Substance | Binding O.D. 405 nm [1] | Binding O.D. 405 nm [2]
F S D C Y H S G C P [φ1-1] | 1.5 | 
T W C P V W I W D C (TWCPVWIWDC; displayed on phage; peptide (1)..(10) randomly-selected sequence obtained by biopanning a decapeptide library with 52b3) [φB16] |  | 1.0
D W D Y G A L M W A (DWDYGALMWA; displayed on phage; peptide (1)..(10) randomly-selected sequence obtained by biopanning a decapeptide library with R4A) [φ7-3] | 1.1 | 
S T E H S E A D L W (STEHSEADLW; displayed on phage; peptide (1)..(10) randomly-selected sequence obtained by biopanning a decapeptide library with R4A) [φ1-2] | 0.7 | 
L L D D G F W P R V (LLDDGFWPRV; displayed on phage; peptide (1)..(10) randomly-selected sequence obtained by biopanning a decapeptide library with 52b3) [φB25] |  | 1.5
D G E W P R E G W S (DGEWPREGWS; displayed on phage; peptide (1)..(10) randomly-selected sequence obtained by biopanning a decapeptide library with 52b3) [φB56] |  | 1.6
W D C Y V C R L E L (WDCYVCRLEL; displayed on phage; peptide (1)..(10) randomly-selected sequence obtained by biopanning a decapeptide library with 52b3) [φB21] |  | 1.2
R H E D G D W P R V (RHEDGDWPRV; not fully specified (N-terminus, C-terminus)) [φB11] |  | 1.4
E D L E G E W P M R (EDLEGEWPMR; displayed on phage; peptide (1)..(10) randomly-selected sequence obtained by biopanning a decapeptide library with 52b3) [φB22] |  | 1.5
D W E Y S V W L S N (DWEYSVWLSN; not fully specified (N-terminus, C-terminus)) [φ1-3] | 1.3 | 
V L I C W D G C E T (VLICWDGCET; displayed on phage; peptide (1)..(10) randomly-selected sequence obtained by biopanning a decapeptide library with 52b3) [φB17] |  | 1.6
C G V D G R W P R W (CGVDGRWPRW; displayed on phage; peptide (1)..(10) randomly-selected sequence obtained by biopanning a decapeptide library with 52b3) [φB23] |  | 1.5
L Y F E D Y R C E L (LYFEDYRCEL; displayed on phage; peptide (1)..(10) randomly-selected sequence obtained by biopanning a decapeptide library with R4A) [φ7-6] | 1.2 | 
S L D E L D W D S M (SLDELDWDSM; displayed on phage; peptide (1)..(10) randomly-selected sequence obtained by biopanning a decapeptide library with 52b3) [φB1] |  | 1.4
S L I S D E W P R W (SLISDEWPRW; displayed on phage; peptide (1)..(10) randomly-selected sequence obtained by biopanning a decapeptide library with 52b3) [φB24] |  | 1.3
S C Y Q S Y P G E C (SCYQSYPGEC; displayed on phage; peptide (1)..(10) randomly-selected sequence obtained by biopanning a decapeptide library with 52b3) [φB52] |  | 1.8
